ChEMBL document CHEMBL6083290, “Proline Analogues in Drug Design: Current Trends and Future Prospects” (J Med Chem, 2024)
Starred links: 1 amine or outer side, 2 acyl side, 3 side chain; linkers in the order of their positions; H or OH if unused. Non-standard residues stand in square brackets, D forms with d. Residues, ends and D or L forms follow the SMILES beside them. ξ: configuration not given here. *: point of attachment. X3 = CC(C)C[C@H](N[*:1])[C@H](O)C[C@H](C(=O)[*:2])C(C)C; X2 = O=C(C1[C@@H](F)[C@@H](O)CN1[*:1])[*:2]; X1 = O=C(C1[C@H](F)[C@@H](O)CN1[*:1])[*:2]; ξPro(4R-OH) = O=C(O)C1C[C@@H](O)CN1; NHCH2(2-pyridyl) = c1ccc(CN*)nc1; αMeP = C[C@@]1(C(=O)O)CCCN1; Boc = CC(C)(C)OC(=O)*

Tests used:
[1] = target: T1, Replicase polyprotein 1ab (Severe acute respiratory syndrome coronavirus 2, UniProt P0DTD1)
Description: Inhibition of SARS-CoV-2 main protease

[2] = Lipophilicity, logP of compound; details: octanol/water
[3] = target: T1, Replicase polyprotein 1ab; remark: listed apart in the source
Description: Inhibition of SARS-CoV-2 main protease extracted from Escherichia coli BL21 (DE3) cells

SARS-CoV-2 = assay: microbe, parasite or virus in culture; details: Severe acute respiratory syndrome coronavirus 2, 2019-nCoV Muc-IMB-1, Vero C1008, 48 h
Description: Antiviral activity against SARS-CoV-2 2019-nCoV Muc-IMB-1 infected in Vero E6 cells assessed as reduction in viral replication measured after 48 hrs by qRT-PCR analysis

[4] = target: Endothelial PAS domain-containing protein 1 (Homo sapiens, UniProt Q99814); assay: Binding affinity to HIF-2alpha (unknown origin) assessed as dissociation constant
Endothelial PAS domain-containing protein 1, sequence (Q99814 whole entry, the tested form may be a part): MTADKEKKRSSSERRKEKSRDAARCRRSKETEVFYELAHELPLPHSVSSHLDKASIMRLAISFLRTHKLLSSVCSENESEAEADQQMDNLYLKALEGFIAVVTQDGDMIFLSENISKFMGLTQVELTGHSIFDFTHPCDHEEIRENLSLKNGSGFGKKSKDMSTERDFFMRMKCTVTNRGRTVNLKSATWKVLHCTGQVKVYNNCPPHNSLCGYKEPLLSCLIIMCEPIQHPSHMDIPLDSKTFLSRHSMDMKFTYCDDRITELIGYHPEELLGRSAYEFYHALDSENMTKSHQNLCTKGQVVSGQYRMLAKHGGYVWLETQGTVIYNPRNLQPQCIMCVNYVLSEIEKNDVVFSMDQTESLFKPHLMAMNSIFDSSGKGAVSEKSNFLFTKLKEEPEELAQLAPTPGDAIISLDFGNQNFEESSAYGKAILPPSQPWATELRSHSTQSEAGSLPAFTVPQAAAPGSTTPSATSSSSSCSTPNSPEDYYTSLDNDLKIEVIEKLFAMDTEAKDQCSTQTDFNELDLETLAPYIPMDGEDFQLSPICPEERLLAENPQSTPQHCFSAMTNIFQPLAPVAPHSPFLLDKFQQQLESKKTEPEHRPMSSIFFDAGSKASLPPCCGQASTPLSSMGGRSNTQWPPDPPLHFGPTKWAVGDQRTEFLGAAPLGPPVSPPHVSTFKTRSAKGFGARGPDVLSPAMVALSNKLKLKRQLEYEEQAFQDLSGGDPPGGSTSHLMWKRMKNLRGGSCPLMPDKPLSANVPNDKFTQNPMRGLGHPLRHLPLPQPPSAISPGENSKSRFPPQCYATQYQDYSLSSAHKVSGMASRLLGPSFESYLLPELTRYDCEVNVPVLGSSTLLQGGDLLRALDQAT

[5] = Inhibition of Glutamate receptor (unknown origin)
Renin = target: T2, Renin (Homo sapiens, UniProt P00797); assay: Inhibition of renin (unknown origin) using Arg-Glu(EDANS)-lle-His-Pro-Phe-His-Leu-Val-lle-His-Thr-Lys(dabcyl)-Arg as substrate incubated for 10 mins by fluorescence based assay
T2 sequence (P00797 whole entry): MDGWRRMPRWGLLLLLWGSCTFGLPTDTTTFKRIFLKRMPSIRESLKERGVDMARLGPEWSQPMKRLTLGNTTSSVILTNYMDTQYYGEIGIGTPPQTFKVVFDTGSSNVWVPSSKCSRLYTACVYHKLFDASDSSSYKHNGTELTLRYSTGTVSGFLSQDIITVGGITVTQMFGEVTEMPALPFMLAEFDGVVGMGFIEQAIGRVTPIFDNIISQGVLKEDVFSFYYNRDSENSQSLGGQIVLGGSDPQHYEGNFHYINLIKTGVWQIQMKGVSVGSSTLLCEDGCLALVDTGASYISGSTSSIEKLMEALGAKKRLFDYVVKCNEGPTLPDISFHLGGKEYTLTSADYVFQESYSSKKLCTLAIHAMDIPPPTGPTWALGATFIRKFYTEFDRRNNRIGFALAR

MCF7 = assay: Antiproliferative activity against human MCF7 cells assessed as reduction in cell viability incubated for 48 hrs by MTT assay; details: MCF7, 48 h
L-363 = assay: Antiproliferative activity against human L-363 cells assessed as reduction in cell growth incubated for 72 hrs by MTT assay; details: L-363, 72 h
[6] = target: Phosphatidylinositol 4,5-bisphosphate 3-kinase catalytic subunit alpha isoform (Homo sapiens, UniProt P42336); assay: Inhibition of PI3Kalpha (unknown origin) using PIP2 as substrate measured after 30 mins by TR-FRET assay
Phosphatidylinositol 4,5-bisphosphate 3-kinase catalytic subunit alpha isoform, sequence (P42336 whole entry, canonical isoform): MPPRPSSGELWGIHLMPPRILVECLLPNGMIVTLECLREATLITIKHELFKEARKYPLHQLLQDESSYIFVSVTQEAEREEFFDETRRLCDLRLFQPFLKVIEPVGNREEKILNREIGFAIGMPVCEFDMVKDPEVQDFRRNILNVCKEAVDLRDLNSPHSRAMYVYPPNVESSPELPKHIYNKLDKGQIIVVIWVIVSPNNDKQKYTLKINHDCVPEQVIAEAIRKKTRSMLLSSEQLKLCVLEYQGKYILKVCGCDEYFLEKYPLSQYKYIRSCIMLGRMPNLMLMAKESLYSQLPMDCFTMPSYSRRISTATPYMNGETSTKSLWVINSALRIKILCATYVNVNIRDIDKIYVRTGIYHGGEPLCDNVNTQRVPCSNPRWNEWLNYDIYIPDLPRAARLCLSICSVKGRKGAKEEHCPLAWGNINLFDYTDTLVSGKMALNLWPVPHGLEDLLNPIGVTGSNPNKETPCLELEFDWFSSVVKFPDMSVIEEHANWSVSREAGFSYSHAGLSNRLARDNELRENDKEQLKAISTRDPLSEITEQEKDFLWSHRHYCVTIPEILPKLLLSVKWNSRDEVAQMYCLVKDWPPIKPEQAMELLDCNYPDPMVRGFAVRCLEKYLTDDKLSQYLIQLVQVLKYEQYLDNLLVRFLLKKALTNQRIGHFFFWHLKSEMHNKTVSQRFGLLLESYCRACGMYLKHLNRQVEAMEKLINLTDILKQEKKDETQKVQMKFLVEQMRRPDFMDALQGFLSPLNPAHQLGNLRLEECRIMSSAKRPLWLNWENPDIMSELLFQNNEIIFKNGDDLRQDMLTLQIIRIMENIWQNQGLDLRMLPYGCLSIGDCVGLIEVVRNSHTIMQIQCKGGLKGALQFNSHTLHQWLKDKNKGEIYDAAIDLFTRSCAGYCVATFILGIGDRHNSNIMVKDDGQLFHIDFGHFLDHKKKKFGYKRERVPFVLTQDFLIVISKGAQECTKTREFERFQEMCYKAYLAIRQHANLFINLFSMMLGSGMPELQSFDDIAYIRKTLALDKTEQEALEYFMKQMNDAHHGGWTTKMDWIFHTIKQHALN

[7] = Metabolic stability in rat liver microsomes assessed as half life
in vitro = details: rat, plasma

COc1ccc2nccc(C(=O)NCC(=O)N3CC(F)(F)C[C@H]3C#N)c2c1
IC50 [1]: 9 nM

Cc1c(COc2cc(OCc3cccc(C#N)c3)c(CN3C[C@H](O)C[C@@H]3C(=O)O)cc2Cl)cccc1-c1ccc2c(c1)OCCO2
IC50 [1]: 10.9 nM

COc1ccc(/C=C/C(=O)N2C[C@@H](NC(=O)c3cccnc3)C[C@H]2C(=O)NO)cc1OC
logP [2]: 0.1
IC50 [3]: 9 nM

CC(C)(C)[C@H](NC(=O)C(F)(F)F)C(=O)N1C[C@H]2[C@@H]([C@H]1C(=O)N[C@H](C#N)C[C@@H]1CCNC1=O)C2(C)C
EC50 (SARS-CoV-2): 5600 nM

COc1cccc2[nH]c(C(=O)N[C@@H](CC(C)C)C(=O)N[C@H](C#N)C[C@@H]3CCNC3=O)cc12
EC50 (SARS-CoV-2): 1200 nM

COc1cccc2[nH]c(C(=O)N3C[C@H]4[C@@H]([C@H]3C(=O)N[C@@H](C[C@@H]3CCNC3=O)C(=O)c3nc5ccccc5s3)C4(C)C)cc12
EC50 (SARS-CoV-2): 1400 nM

CC(=O)N[C@@H](C(=O)N1C[C@H](O)[C@H](F)C1C(=O)NCc1ccc(-c2scnc2C)cc1)C(C)(C)C (some centres not stated)
Kd [4]: 0.24 nM

C[C@@H](C(=O)N[C@H](C(=O)N1C[C@H](OC(F)F)C[C@H]1C(=O)N[C@H](C#N)C[C@@H]1CCNC1=O)C(C)(C)C)N(C)C(=O)CCCCCNc1cccc2c1C(=O)N(C1CCC(=O)NC1=O)C2=O (some centres not stated)
IC50 [3]: 182 nM

CC(=O)N[C@@H](C(=O)N1C[C@H](O)[C@@H](F)C1C(=O)NCc1ccc(-c2scnc2C)cc1)C(C)(C)C (some centres not stated)
Kd [4]: 3.1 nM

O=C(O)[C@@H]1C[C@H]2C[C@H](CN3CC(F)(F)C[C@H]3C(=O)O)CC[C@H]2CN1
IC50 [5]: 45 nM

CC[C@H](C)[C@H](NC(=O)[C@@H](C[C@@H](O)[C@H](CC(C)C)NC(=O)[C@H](Cc1c[nH]cn1)NC(=O)[C@H](Cc1ccccc1)NC(=O)[C@]1(C)CCCN1C(=O)OC(C)(C)C)C(C)C)C(=O)NCc1ccccn1 (Boc-[αMeP]FH[X3]I-{NHCH2(2-pyridyl)})
IC50 (Renin): 2 nM

CC[C@H](C)[C@H](NC(=O)[C@H](CCC(=O)O)NC(=O)[C@H](Cc1ccccc1)NC(=O)[C@H](CC(=O)O)NC(=O)[C@H](CC(=O)O)NC(=O)[C@H](CC(=O)O)NC(=O)[C@H](CCSC)NC(=O)[C@@H]1CCCN1C(=O)[C@H](Cc1ccc(O)cc1)NC(=O)C1[C@H](F)[C@@H](O)CN1C(=O)[C@H](C)NC(=O)[C@H](CC(C)C)NC(=O)[C@H](C)NC(=O)[C@H](CCC(=O)O)NC(=O)[C@@H](N)CC(=O)O)C(=O)N[C@@H](CCCNC(=N)N)C(=O)N[C@@H](CO)C(=O)N[C@@H](Cc1ccccc1)C(=O)O (some centres not stated) (H-DEALA[X1]YPMDDDFEIRSF-OH)
Kd [4]: 52 nM

CC[C@H](C)[C@H](NC(=O)[C@H](CCC(=O)O)NC(=O)[C@H](Cc1ccccc1)NC(=O)[C@H](CC(=O)O)NC(=O)[C@H](CC(=O)O)NC(=O)[C@H](CC(=O)O)NC(=O)[C@H](CCSC)NC(=O)[C@@H]1CCCN1C(=O)[C@H](Cc1ccc(O)cc1)NC(=O)C1[C@@H](F)[C@@H](O)CN1C(=O)[C@H](C)NC(=O)[C@H](CC(C)C)NC(=O)[C@H](C)NC(=O)[C@H](CCC(=O)O)NC(=O)[C@@H](N)CC(=O)O)C(=O)N[C@@H](CCCNC(=N)N)C(=O)N[C@@H](CO)C(=O)N[C@@H](Cc1ccccc1)C(=O)O (some centres not stated) (H-DEALA[X2]YPMDDDFEIRSF-OH)
Kd [4]: 12 nM

CC[C@H](C)[C@H](NC(=O)[C@H](CCC(=O)O)NC(=O)[C@H](Cc1ccccc1)NC(=O)[C@H](CC(=O)O)NC(=O)[C@H](CC(=O)O)NC(=O)[C@H](CC(=O)O)NC(=O)[C@H](CCSC)NC(=O)[C@@H]1CCCN1C(=O)[C@H](Cc1ccc(O)cc1)NC(=O)C1C[C@@H](O)CN1C(=O)[C@H](C)NC(=O)[C@H](CC(C)C)NC(=O)[C@H](C)NC(=O)[C@H](CCC(=O)O)NC(=O)[C@@H](N)CC(=O)O)C(=O)N[C@@H](CCCNC(=N)N)C(=O)N[C@@H](CO)C(=O)N[C@@H](Cc1ccccc1)C(=O)O (stereo partly drawn) (H-DEALA[ξPro(4R-OH)]YPMDDDFEIRSF-OH)
Kd [4]: 11 nM

Cc1nc(NC(=O)N2CCC[C@H]2C(N)=O)sc1-c1ccnc(C(C)(C)C(F)(F)F)c1 [ALPELISIB]
IC50 (MCF7): 1200 nM
IC50 (L-363): 170 nM

O=C(/C=C/c1cccc(S(=O)(=O)Nc2ccccc2)c1)NO [BELINOSTAT]
IC50 (MCF7): 1200 nM
IC50 (L-363): 170 nM
IC50 [6]: 2.9 nM

CS(=O)(=O)c1cncc(C(=O)N2[C@@H](C(=O)N[C@@H](c3cc(F)c(C(F)(F)F)cc3F)C3CC3)C[C@H]3C[C@H]32)c1 [NELUTROCTIV]
half-life [7]: 30 min

C[C@@]1(C(=O)N[C@@H](CCC(=O)O)C(=O)O)CCCN1C(=O)CN [TROFINETIDE] (H-Gly-[αMeP]-Glu-OH)
half-life (in vitro): 49 min
